Laboratory results reported in paper PMC10353061 (ACS Pharmacology & Translational Science, 2023).
pIC50: −log10 of the molar value.

What was measured:
MDA-MB-231 cells = assay: Cell proliferation by live-cell imaging (IncuCyte), MDA-MB-231 TNBC cells; format: cell-based; details: for effect on MDA-MB-231 cell proliferation: 40 μM, 48 and 72 h
Excerpt: TNBC represents approximately 10–15% of all breast cancers and is the most aggressive subtype of breast cancer. Patients with TNBC have a poor outcome compared to the other subtypes of breast cancer. In the breast cancer tissue, β-catenin is overexpressed compared to the normal tissue. The overexpression of β-catenin is associated with TNBC and lymph node metastasis. […] There is a quest for the development of new therapies to treat TNBC. […] Effects on cell proliferation of MDA-MB-231 TNBC cells were evaluated by live-time cell imaging using the Incucyte S5 system.
(§1) Figure 10 Inhibition of MDA-MB-231, HCC1806, and HCC1937 TNBC cell growth by compounds 5–10 and reference compounds 3, […], and iCRT3 at 40 μM. Cell growth inhibition was quantified using the IncuCyte cell-by-cell analysis software, by comparison with the growth of DMSO-treated cells at 72 h, set at 100% (mean ± SD, n = 3, one-way ANOVA, **p ≤ 0.01, ****p ≤ 0.0001).
(§2) Cell proliferation of breast cancer cell lines upon continuous treatment with select compounds was evaluated by the real-time quantitative live-cell imaging system. MDA-MB-231 (1500 cells/well), HCC1806 (2000 cells/well), and HCC1937 (3000 cells/well) were seeded in 96-well plates, treated with increasing doses of selected compounds and images (5 images/well) were acquired every 8 h for 3 days at 10× magnification in an IncuCyte SX5 live-content imaging system (Essen Bioscience) at 37 °C with 5% CO2. Images were analyzed using IncuCyte cell-by-cell analysis software to detect and quantify live cells (phase-contrast). The number of cells at each time point was quantified using IncuCyte cell-by-cell analysis software, and cell growth was evaluated as the normalized ratio between counted cells at each time point normalized to those counted at time 0. Graph drawing and statistical analyses were performed in GraphPad Prism according to the statistical tests described in the figure legends.

[1] = tested on: Wnt/β-catenin signaling pathway; assay: Topflash/Fopflash luciferase report assay in SW480 cells; format: cell-based; details: 30 μM
Excerpt: (§3) We synthesized derivatives 5–10 bearing 5-membered and 6-membered heterocyclic rings at the position 3′ or 4′ of the B phenyl ring. […] SW480 cells show higher Wnt activation compared to HCT116 cells.[28] […] In SW480 cells, compounds 5–10 were in the 1.75%(10)–7.32%(7) range of residual luciferase activity, except 6(28.46%), compared to 3(21.61%); in HCT116 cells, compounds 5–10 were in the 0.37%(7)–5.88%(5) range, compared to 3 (18.75%) (Table 1 and Figure 5).
(§4) Figure 5 Residual luciferase activity (%) by compounds 5–10 and reference compound 3 in SW480 cells (left panel) and HCT116 cells (right panel). Data are represented as the mean ± SD of three independent experiments, each performed in triplicate.
(§5) Briefly, the Topflash plasmid (Beyotime, Zhejiang, China) contains 7 TCF/LEF binding sites, while the Fopflash plasmid (Beyotime, Zhejiang, China) contains 6 mutated TCF/LEF binding sites, which are located in the upstream of the luciferase reporter. SW480 and HCT116 cell lines were cultured in 90% DMEM (HyClone, #SH30243.01) plus 10% fetal bovine serum (Gibco, #10270) and plasmocin (mpp-39-03, InvivoGen), respectively. The Topflash/Fopflash vector and plasmid pTK-renilla together were co-transfected to the cells. […] The Dual-Glo luciferase assay kit (Promega, #E1910) was used to measure the luminescence intensity (Figure 2).

[2] = tested on: Wnt/β-catenin signaling pathway; assay: Topflash/Fopflash luciferase report assay in HCT116 cells; format: cell-based, human; details: 30 μM
Excerpt: as §3, §4, §5

HCC1806 cells = assay: Cell proliferation by live-cell imaging (IncuCyte), HCC1806 TNBC cells; format: cell-based; details: 40 μM, 72 h
Method: (§6) As TNBC is a highly heterogeneous subgroup, including breast cancers with different molecular and phenotypic traits,[37] effects of compounds 5–10 on cell proliferation were also tested in additional TNBC cell lines, i.e., HCC1806 and HCC1937. As inhibitors of HCC1806 TNBC cells, compounds 5–10 were evaluated in parallel with compounds 3, ICG-001, and iCRT3 (Figures 10 and S12–S19, Supporting Information); as inhibitors of the HCC1937 TNBC cells, 5–10 were compared with 3 and iCRT3 (Figures 10, S20, and S21). Effects on cell proliferation were evaluated as above for the MDA-MB-231 TNBC cells at the latest time point of observation of 72 h.
as §1, §2

HCC1937 cells = assay: Cell proliferation by live-cell imaging (IncuCyte), HCC1937 TNBC cells; format: cell-based; details: 40 μM, 72 h
Method: as §6, §1, §2

β-catenin = assay: Wnt reporter assay (TOP/FOP luciferase) in LiCl-treated HCT116 cells; format: cell-based; details: Homo sapiens, HCT-116, read-out: IC50, inhibition of β-catenin (luciferase reporter), LiCl 50 mM, 24 h
Method: Compounds 9 and 10 were assayed at increasing 10 and 100 nM and 1 μM concentrations in HCT116 cells transfected with luciferase-based vectors and treated with LiCl (50 mM). TOP TK is a well-established Wnt reporter vector containing eight sequences of Tcf/Lef binding site upstream of the timidine kinase (TK) minimal promoter, driving the expression of firefly luciferase.
Figure 6 HCT116 cells were transfected with luciferase-based vectors and treated with LiCl (50 mM) together with increasing concentrations of compound 9 or 10. Cells were harvested 24 h post-treatment and assayed for luciferase activity. Inhibitions were calculated as the luciferase/renilla ratio of the treated samples vs. the luciferase/renilla ratio of the untreated (control) samples. Data are represented as the mean ± SD of three independent experiments, each performed in triplicate. **p < 0.01, ***p < 0.001, n.s = not significant, as determined by analysis of variance (ANOVA).
Luciferase assays were performed as previously described.[58],[59] Briefly, HCT116 cells were transfected with Topflash reporter (M50 Super 8x TOPFlash, containing 8 repeats of TCF/LEF binding sites) or Fopflash reporter (M51 Super 8x FOPFlash, containing the mutated TCF/LEF binding sites) plasmids using the Dreamfect Gold Transfection Reagent (#DG80500, OZ Biosciences). […]

Myc = Myc and β-catenin expression (western blot, qPCR) in LiCl-treated HCT116 cells; format: cell-based, human; details: HCT116, LiCl 50 mM, 24 h
Method: (§7) To this end, HCT116 cells were treated for 24 h with 50 mM LiCl and increasing concentrations (10–50–100 μM) of the two compounds.
Figure 7 Top panels. […] Vinculin was used as a loading control. […] Bottom panels. c-Myc mRNA levels were measured by qPCR and normalized to the expression of β-actin mRNA and expressed as fold change relative to the control sample. Results represent the mean ± SD of three independent experiments, each performed in triplicate. **p < 0.01, ***p < 0.001 as determined by ANOVA.
Briefly, total proteins from the cells in each group were subjected to 12% denaturing sodium dodecyl sulfate-polyacrylamide gel electrophoresis (SDS-PAGE). The proteins were then transferred onto a poly(vinylidene fluoride) (PVDF) membrane (Millipore). […] After the membrane was fully washed, it was incubated with secondary antibodies at 37 °C for 45 min goat anti-rabbit IgG H&L (HRP) (ab97051), Abcam, MA. The membrane was washed with Tris-buffered saline/Tween-20 (TBST) 4 times at room temperature for 14 min each time. Next, the samples were exposed and imaged (Sigma-Aldrich Chemical) using the enhanced chemiluminescence (ECL) method (Pierce Biotechnology).

Fgf20 and Sal4 = assay: Wnt-target gene mRNA levels (qPCR) in LiCl-treated HCT116 cells; format: cell-based, human; details: HCT116, LiCl 50 mM, 24 h, 10 μM
Method: as §7
HCT116 was treated with LiCl (50 mM) and 10 μM compound 9 or 10 for 24 h. Fgf20, Sall4 (Wnt-target genes) mRNA levels were measured by qPCR and normalized to the expression of β-actin mRNA. Results are expressed as fold change relative to the control sample and represent the mean ± SD of three independent experiments, each performed in triplicate. *p < 0.05, **p < 0.01, ***p < 0.001 as determined by ANOVA.

[3] = tested on: β-catenin/Tcf-4 interaction; assay: Co-immunoprecipitation of β-catenin and Myc-tagged Tcf-4 in HCT116 cells; format: cell-based, human; details: HCT116 transfected with Myc-tagged Tcf-4, LiCl 50 mM, 50 μM, 24 h
Method: Toward this end, we performed a co-immunoprecipitation study in HCT116 cells transfected with Myc-tagged Tcf-4, treated with the two compounds, and immunoprecipitated with Myc antisera.
HCT116 cells were transiently transfected with the Myc-tagged Tcf-4 plasmid and treated with LiCl (50 mM) and 9 (50 μM) or 10 (50 μM) for 24 h. Lysates were immunoprecipitated using Myc-agarose beads and western blot analysis was performed. […] Myc-agarose beads saturated with the Myc-blocking peptide before immunoprecipitation were used as a negative control.
Co-immunoprecipitation assays were performed as previously described.[16],[60] Briefly, 2 × 10^4/cm^2 HCT116 cells were seeded in a 100 mm dish and incubated overnight at 37 °C. Cells were transfected with pcDNA/Myc Tcf-4 (Addgene plasmid #16512; http://n2t.net/addgene:16512; RRID:Addgene_16512)[29] and, after overnight incubation, were starved for 8 h in a medium containing Opti-MEM (#31985070, Thermo Fisher Scientific), FBS 0.5%, pen/strep 1%, NaPyr 1%, NeAA 1%, and then co-treated with 50 mM LiCl and DMSO or 50 μM compound 9 or 50 μM compound […] for 24 h. Cells were collected at the end of the treatments and lysed in a buffer containing 0.5% Triton X-100, 0.5 mM EDTA, and 1 mM DTT. […] Chemioluminescence was detected using WesternBright ECL (#K-12045-D50, Advansta), according to the manufacturer’s protocol.

O=C1[C@H](Cc2ccc(O)cc2)N2C(=O)CCN(C(=O)NCc3ccccc3)[C@H]2CN1Cc1cccc2ccccc12 [ICG-001, reference compound]
reduction of MDA-MB-231 cell viability (MDA-MB-231 cells; even at the low dose of 0.49 μM): most effective compound

O=S(=O)(Nc1cccc(-c2ccco2)c1)c1ccc(Br)cc1 [Compound 5, 4-Bromo-N-(3-(furan-2-yl)phenyl)benzenesulfonamide]
% Luciferase Activity SW480 (residual) [1]: 4.80% | % Luciferase Activity HCT116 (residual) [2]: 5.88% | effect on MDA-MB-231 cell proliferation (MDA-MB-231 cells): significant antiproliferative effects | effect on HCC1806 cell growth (HCC1806 cells): significant inhibition | effect on HCC1937 cell growth (HCC1937 cells): significant inhibition | melting point: 147 to 150 °C

O=S(=O)(Nc1ccc(-c2ccccn2)cc1)c1ccc(Cl)cc1 [Compound 10, 4-Chloro-N-(4-(pyridin-2-yl)phenyl)benzenesulfonamide]
% Luciferase Activity SW480 (residual) [1]: 1.75% | % Luciferase Activity HCT116 (residual) [2]: 4.56% | pIC50 (β-catenin): < 6.00 | inhibition of Myc expression (Myc; 10 μM): about 2.5 fold | protein and mRNA levels of Myc (Myc; 10–50–100 μM): significant dose-dependent inhibition | β-catenin protein levels (Myc; 10–50–100 μM): reduced only at the highest dose | mRNA levels of Wnt-target genes Fgf20 and Sal4 (Fgf20 and Sal4): strongly inhibited | association between β-catenin and Tcf-4 (co-immunoprecipitation) [3]: completely abrogated the association | melting point: 180 to 182 °C

O=S(=O)(Nc1ccc(-c2ccco2)cc1)c1ccc(Br)cc1 [Compound 8, 4-Bromo-N-(4-(furan-2-yl)phenyl)benzenesulfonamide]
% Luciferase Activity SW480 (residual) [1]: 1.82% | % Luciferase Activity HCT116 (residual) [2]: 5.58% | effect on HCC1806 cell growth (HCC1806 cells): mild inhibitory effect | melting point: 163 to 166 °C

CCOC(=O)c1ccc(NS(=O)(=O)c2ccc(Br)cc2)cc1 [Compound 3, Ethyl 4-((4-bromophenyl)sulfonamido)benzoate, reference compound]
% Luciferase Activity SW480 (residual) [1]: 21.61% | % Luciferase Activity HCT116 (residual) [2]: 18.75% | effect on HCC1806 cell growth (HCC1806 cells): mild efficacy | effect on HCC1937 cell growth (HCC1937 cells): mild efficacy

O=S(=O)(Nc1cccc(-c2ccccn2)c1)c1ccc(Cl)cc1 [Compound 7, 4-Chloro-N-(3-(pyridin-2-yl)phenyl)benzenesulfonamide]
% Luciferase Activity SW480 (residual) [1]: 7.32% | % Luciferase Activity HCT116 (residual) [2]: 0.37% | effect on HCC1806 cell growth (HCC1806 cells): mild inhibitory effect | melting point: 166 to 169 °C

O=S(=O)(Nc1cccc(-c2ccccn2)c1)c1ccc(Br)cc1 [Compound 6, 4-Bromo-N-(3-(pyridin-2-yl)phenyl)benzenesulfonamide]
% Luciferase Activity SW480 (residual) [1]: 28.46% | % Luciferase Activity HCT116 (residual) [2]: 5.14% | effect on MDA-MB-231 cell proliferation (MDA-MB-231 cells): significant antiproliferative effects | effect on HCC1806 cell growth (HCC1806 cells): significant inhibition | effect on HCC1937 cell growth (HCC1937 cells): significant inhibition | melting point: 175 to 177 °C
